Data on 36 compounds can be found in ChEMBL document CHEMBL5352396, “Synthesis and biological evaluation of novel FiVe1 derivatives as potent and selective agents for the treatment of mesenchymal cancers” (Eur J Med Chem, 2022).

pIC50: −log10 of the molar value. Converted amounts (≈) assume the structure as drawn. The source made the active and inactive calls. The rule behind the calls is not given here.

Series [1] in a line: Metabolic stability in CD-1 mouse liver microsomes assessed as intrinsic clearance at 100 uM measured upto 60 mins in presence of NADPH by LC-MS/MS analysis. The note with it: for microsomal intrinsic clearance: mouse, microsomes, 1 h, 100 µM. The format is ADME, Microsome.
Series [2] concerns GCT. Briefly: cells. Particulars: Homo sapiens, 72 h.
Series [3] in a line: Kinetic solubility of the compound in DPBS buffer at pH 7.4 incubated for 16 hrs under shaking condition by HPLC analysis. The format is physicochemical. Particulars: read-out: Kinetic_solubility.
Series [4] is described as follows: Metabolic stability in CD-1 mouse liver microsomes assessed as half life at 100 uM measured upto 60 mins in presence of NADPH by LC-MS/MS analysis. Type of series: ADME, Microsome. The note with it: for t1/2: mouse, microsomes, 1 h, 100 µM. Background: Liver microsomes are vesicles of endoplasmic reticulum, rich in cytochrome P450 enzymes.
In series [5] the test system is MCF7. Briefly: cells. The note with it: Homo sapiens, MCF7, 72 h.
Series [6] is described as follows: Metabolic stability in CD-1 mouse liver microsomes assessed as parent compound remaining at 100 uM measured after 60 mins in presence of NADPH by LC-MS/MS analysis. Type of series: ADME, Microsome. The note with it: read-out: Stability.
The subject of series [7] is RD. Briefly: cells. The note with it: Homo sapiens, 72 h.
For series [8], the system named is HT-1080. Briefly: cells. The note with it: Homo sapiens, HT-1080, 72 h.
Series [9] concerns the target Vimentin (Homo sapiens) (UniProt P08670). Briefly: Induction of Vimentin phosphorylation in human RD cells at 1 uM incubated for 24 hrs by Western blot analysis. The format is cell-based.
Series [10] has the same target. Briefly: Induction of Vimentin phosphorylation in human HT-1080 cells at 1 uM incubated for 24 hrs by Western blot analysis. The format is cell-based.
The target is the same in series [11]. Briefly: Induction of Vimentin phosphorylation in human GCT cells at 1 uM incubated for 24 hrs by Western blot analysis. Type of series: cell-based. In general terms: In western blotting, separated proteins are transferred to a membrane and probed.

Sequence of Vimentin (Homo sapiens) (P08670 whole entry): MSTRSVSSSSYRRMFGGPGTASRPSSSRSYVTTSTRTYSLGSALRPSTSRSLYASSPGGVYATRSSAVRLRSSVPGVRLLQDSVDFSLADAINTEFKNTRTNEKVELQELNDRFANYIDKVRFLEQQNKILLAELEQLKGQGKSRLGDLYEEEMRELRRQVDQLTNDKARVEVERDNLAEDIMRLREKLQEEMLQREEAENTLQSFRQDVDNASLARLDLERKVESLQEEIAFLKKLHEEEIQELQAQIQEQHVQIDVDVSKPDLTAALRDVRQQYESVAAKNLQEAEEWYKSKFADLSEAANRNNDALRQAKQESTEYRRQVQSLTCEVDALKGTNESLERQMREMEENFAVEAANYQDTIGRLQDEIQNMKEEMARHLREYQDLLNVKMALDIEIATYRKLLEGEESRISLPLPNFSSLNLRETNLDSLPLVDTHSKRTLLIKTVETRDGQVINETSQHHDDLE

For `NCCOc1cc(Cl)cc(N2CCN(c3cnnc4c(Cl)cccc34)CC2)c1`, the microsomal intrinsic clearance in [1] is under 9.6 µL/min/mg. The negative logarithm of the IC50 (pIC50) is 5.45 in [2], under 4.70 in series [5], 5.34 in series [7] and 5.41 in series [8]. Moreover, the solubility kinetic at 16 h in [3] stood at 38 µM (≈ 15.9 µg/mL). In addition, the t1/2 in series [4] is over 145 min. Further, the remaining at 1 h, 100 µM in series [6] was determined as 78.7%.

Consider `COc1ccc2c(N3CCN(c4cccc(Cl)c4)CC3)cnnc2c1Cl`, for which the pIC50 in series [2], in series [5], in series [7] and in [8] was under 4.70 each time.

`Clc1cccc(N2CCN(c3cc(-c4ccccc4)ncn3)CC2)c1`: the negative logarithm of the IC50 (pIC50) in series [2], in series [5], in series [7] and in [8] was under 4.70 in each case.

With `C[C@H]1CN(c2cnnc3c(Cl)cccc23)CCN1c1cc(Cl)cc(Cl)c1`, the pIC50 was 5.89 in [2], under 4.70 in [5], 5.97 in series [7] and 5.94 in series [8].

Turning to `Clc1cc(OCCOC2CCCCO2)cc(N2CCN(c3cnnc4c(Cl)cccc34)CC2)c1` (centres undefined), the negative logarithm of the IC50 (pIC50) in series [2], in [5], in [7] and in [8] was under 4.70 throughout. The solubility kinetic at 16 h in [3] is under 1 µM.

With `Clc1cccc(N2CCCN(c3cnnc4c(Cl)cccc34)CC2)c1`, the pIC50 in [2], in [5], in series [7] and in series [8] was under 4.70 in each case.

For the compound `Oc1cc(Cl)cc(N2CCN(c3cnnc4c(Cl)cccc34)CC2)c1`, the negative-log IC50 (pIC50) is 7.24 in [2], 4.92 in series [5], 7.08 in series [7] and 7.07 in series [8].

On to `CC(=O)Nc1cc(Cl)cc(N2CCN(c3cnnc4c(Cl)cccc34)CC2)c1`, for which the negative-log IC50 (pIC50) in series [2] was 4.97; in series [5], under 4.70; in [7], 5.13; in series [8], 4.97.

For `Clc1cccc(N2CCN(c3ncnc4ccccc34)CC2)c1`, the negative-log IC50 (pIC50) in series [2], in series [5], in [7] and in series [8] was under 4.70 throughout.

On to `Clc1cccc(N2CCN(c3ccnc4c(Cl)cccc34)CC2)c1`, for which the pIC50 in series [2], in series [5], in series [7] and in [8] was under 4.70 in each case. Besides, the result in series [9], in series [10] and in series [11] was inactive.

Regarding `Nc1cc(Cl)cc(N2CCN(c3cnnc4c(Cl)cccc34)CC2)c1`, the negative-log IC50 (pIC50) in [2] was 6.30; in [5], under 4.70; in [7], 5.88; in series [8], 6.19.

In the case of `COCCOc1cc(Cl)cc(N2CCN(c3cnnc4c(Cl)cccc34)CC2)c1`, the pIC50 in [2] is 5.97; in series [5] it was under 4.70; in [7] it was 5.87; in series [8], 5.77. Also, in series [3], the solubility kinetic at 16 h was under 1 µM.

Take `COc1cccc(N2CCN(c3cnnc4c(Cl)cccc34)CC2)c1`: the pIC50 in [2] was 6.40; in series [5], under 4.70; in series [7], 6.05; in series [8] it was 6.22.

With `Clc1cccc(N2C[C@@H]3CN(c4cnnc5c(Cl)cccc45)C[C@@H]3C2)c1`, the negative-log IC50 (pIC50) in [2], in series [5], in [7] and in series [8] was under 4.70 throughout.

In the case of `Clc1cccc(N2CCN(c3ccnnc3)CC2)c1`, the pIC50 in [2], in series [5], in series [7] and in series [8] was under 4.70 in each case.

For the compound `Fc1c(Cl)cc(N2CCN(c3cnnc4c(Cl)cccc34)CC2)cc1Cl`, in series [1], the microsomal intrinsic clearance was 42.6 µL/min/mg. Also, the t1/2 in series [4] came out at 32.5 min. Further, the remaining at 1 h, 100 µM in [6] was 29.6%.

As to `Clc1cccc(C2CCN(c3cnnc4c(Cl)cccc34)CC2)c1`, the negative-log IC50 (pIC50) in series [2], in series [5], in [7] and in [8] was under 4.70 each time.

`Clc1cc(OCCN2CCOCC2)cc(N2CCN(c3cnnc4c(Cl)cccc34)CC2)c1`: the negative-log IC50 (pIC50) in [2], in series [5], in series [7] and in [8] was under 4.70 each time. The solubility kinetic at 16 h in series [3] was under 1 µM.

Consider `Fc1ccc(N2CCN(c3cnnc4c(Cl)cccc34)CC2)cc1Cl`, for which the microsomal intrinsic clearance in series [1] worked out at 205.8 µL/min/mg. In addition, the t1/2 in series [4] was 6.7 min. Also, the remaining at 1 h, 100 µM in series [6] was 0.4%.

On to `O=C(O)CCOc1cc(Cl)cc(N2CCN(c3cnnc4c(Cl)cccc34)CC2)c1`, for which the negative-log IC50 (pIC50) in series [2] is 6.12; in series [5], under 4.70; in series [7] it was 5.95; in series [8], 5.81. Besides, in series [3], the solubility kinetic at 16 h is over 200 µM.

Turning to `CN(C)CCCOc1cc(Cl)cc(N2CCN(c3cnnc4c(Cl)cccc34)CC2)c1`, in series [3], the solubility kinetic at 16 h is 48 µM (≈ 22.1 µg/mL). Besides, the figures for the negative-log IC50 (pIC50) in series [5], in series [7] and in [8] were 5.34, 5.43 and 5.57, respectively.

`Clc1cccc(N2CCN(c3ccnc4ccccc34)CC2)c1`: the negative logarithm of the IC50 (pIC50) in series [2], in series [5], in series [7] and in series [8] was under 4.70 each time.

`COC(=O)CCOc1cc(Cl)cc(N2CCN(c3cnnc4c(Cl)cccc34)CC2)c1`: the microsomal intrinsic clearance in [1] was 39 µL/min/mg. Moreover, the pIC50 in [2] is 6.00; in series [5], under 4.70; in series [7], 5.95; in series [8] it was 6.01. Also, the solubility kinetic at 16 h in [3] worked out at 82 µM (≈ 37.8 µg/mL). In addition, the t1/2 in series [4] worked out at 35.5 min. The remaining at 1 h, 100 µM in [6] came to 28.9%.

For the compound `N#Cc1cc(Cl)cc(N2CCN(c3cnnc4c(Cl)cccc34)CC2)c1`, the negative-log IC50 (pIC50) in series [2] was 6.72; in series [5], under 4.70; in series [7], 6.40; in [8], 6.42.

Turning to `Oc1cc(O)cc(N2CCN(c3cnnc4c(Cl)cccc34)CC2)c1`, the pIC50 is 6.18 in series [2], under 4.70 in series [5], 5.89 in series [7] and 6.02 in series [8].

`OC(O)COc1cc(Cl)cc(N2CCN(c3cnnc4c(Cl)cccc34)CC2)c1`: in [1] (CD-1, mouse, liver microsomes, read-out: CLH), the microsomal CLint at 100 µM was 32.5 µL/min/mg. For the same compound, the half-life at 100 µM in series [4] (CD-1, mouse, liver microsomes) worked out at 42.7 min. For the same compound, the remaining at 1 h, 100 µM in series [6] was determined as 35.7%.

`Clc1cccc(N2CC3CC2CN3c2cnnc3c(Cl)cccc23)c1` (centres undefined): the pIC50 is 5.05 in [2], under 4.70 in series [5], 5.25 in [7] and 5.49 in series [8].

In the case of `Clc1cc(N2CCCC2)cc(N2CCN(c3cnnc4c(Cl)cccc34)CC2)c1`, the pIC50 in series [2], in series [5], in [7] and in series [8] was under 4.70 throughout.

On to `CN(C)CCOc1cc(Cl)cc(N2CCN(c3cnnc4c(Cl)cccc34)CC2)c1`, for which the negative logarithm of the IC50 (pIC50) in [2] is 5.19; in [5], 4.80; in series [7], 5.15; in series [8], 5.33. Besides, the solubility kinetic at 16 h in series [3] was 131 µM (≈ 58.5 µg/mL).

For the compound `OCCOc1cc(Cl)cc(N2CCN(c3cnnc4c(Cl)cccc34)CC2)c1`, in [1], the microsomal intrinsic clearance worked out at 72.5 µL/min/mg. For the same compound, the pIC50 in series [2] is 6.18; in series [5], under 4.70; in series [7], 6.39; in [8], 6.30. Further, the solubility kinetic at 16 h in [3] was 13 µM (≈ 5.45 µg/mL). For the same compound, the t1/2 in [4] came out at 19.1 min. Further, in series [6], the remaining at 1 h, 100 µM is 10.5%.

For `Clc1cccc(N2CCN(c3cnnc4ccccc34)CC2)c1`, the pIC50 in series [2], in series [5], in [7] and in [8] was under 4.70 throughout.

As for `Clc1cc(Cl)cc(N2CCN(c3cnnc4c(Cl)cccc34)CC2)c1`, the pIC50 is 6.50 in series [2], under 4.70 in [5], 6.21 in [7] and 6.39 in series [8].

Regarding `Clc1cccc(N2C[C@H]3CC[C@@H](C2)N3c2cnnc3c(Cl)cccc23)c1`, the pIC50 was 5.39 in series [2], under 4.70 in series [5], 5.21 in series [7] and 5.25 in [8].

Turning to `COc1cc(OC)cc(N2CCN(c3cnnc4c(Cl)cccc34)CC2)c1`, the microsomal intrinsic clearance in series [1] is 657.4 µL/min/mg. For the same compound, the negative-log IC50 (pIC50) is 7.48 in [2], 4.81 in [5], 7.48 in series [7] and 7.43 in series [8]. Also, in series [4], the t1/2 was found to be 2.1 min. Also, the remaining at 1 h, 100 µM in series [6] stood at 0.1%.

`COc1cccc2c(N3CCN(c4cccc(Cl)c4)CC3)cnnc12`: the pIC50 in series [2], in series [5], in series [7] and in [8] was under 4.70 each time.

`COC(COc1cc(Cl)cc(N2CCN(c3cnnc4c(Cl)cccc34)CC2)c1)OC`: the pIC50 is 5.53 in series [2], under 4.70 in [5] and 4.72 in series [7]. Further, the solubility kinetic at 16 h in series [3] is under 1 µM.

By pIC50 is commonly meant −log10 of the IC50, conventionally taken in molar units. Higher therefore signals a small IC50. As usually defined, the half-life is how long it takes for the measured level to halve.
